We go through 12 molecules from article PMC12430544 (Molecules, 2025).

As a reminder, the IC50 is the concentration that inhibits the measured activity by half. One may read the inhibition as the percentage by which the read-out fell short of the control.

The target in data set [1] is T1, butyrylcholinesterase (BuChE, from horse serum) (Equus caballus, UniProt P81908).
T1 construct: purchased Sigma-Aldrich
The data set can be described thus: biochemical. Conditions: equine serum BuChE, Ellman's method, pH 7.4; means ± SEM of at least three experiments; read-out: IC50 BuChE Inhibition. The procedure:
(§1) Cholinesterase (ChE) inhibitory activity was evaluated using a modified Ellman’s spectrophotometric method. Acetylcholinesterase (AChE, from electric eel), butyrylcholinesterase (BuChE, from equine serum), 5,5′-dithiobis-(2-nitrobenzoic acid) (Ellman’s reagent, DTNB), S-butyrylthiocholine iodide (BTCI), acetylthiocholine iodide (ATCI), and tarcine hydrochloride were purchased from Sigma-Aldrich. Tarcine hydrochloride was used as a reference standard. All the assays were carried out in 0.1 M KH2PO4/K2HPO4 buffer (pH = 7.4). Stock solutions of tested compounds (10 mM) were prepared in DMSO (below 0.5%, v/v) and diluted in phosphate buffer. The assay was performed in 96-well plate by adding 25 μL of 1 mM acetylthiocholine iodide or butyrylthiocholine iodide used as substrate in the assay, 125 μL of 1 mM 5,5′-dithiobis-(2-nitrobenzoic acid) (DTNB), 25 μL of 0.1 M phosphate buffer (pH = 7.4), 25 μL of testing substance in various concentrations, and 50 μL of 0.2 Units/mL AChE from an electric eel or BuChE from equine serum, respectively. At least five concentrations of the test compounds were assayed. […] The enzyme activity and the percentage inhibition were determined.
For orientation: In Ellman's method for cholinesterases, released thiocholine reacts with DTNB.

Data set [2] concerns the target T2, acetylcholinesterase (AChE, from an electric eel) (Electrophorus electricus, UniProt O42275).
T2 construct: purchased Sigma-Aldrich
The data set can be described thus: biochemical. Particulars: for IC50: electric eel AChE, Ellman's method, pH 7.4, means ± SEM of at least three experiments, read-out: IC50 AChE Inhibition; for Selectivity Index = IC50 (AChE)/IC50 (BuChE): ratio of eeAChE and equine BuChE IC50. The procedure:
as §1

A short description of data set [3]: Metal chelation by UV–vis spectrometry, Job's method and affinity estimate (Cu). Type of data set: physicochemical. Particulars: CH3OH/H2O (v/v = 9/1), UV–vis, 2L+M⇔ML2. From the text: (§2) Given the 8-hydroxy(amino)quinoline moiety with the properties to bind metal ions, the abilities of all the compounds in binding metal ions (Cu^II, Fe^III, Zn^II) were studied by UV–vis spectrometry. At first three compounds were chose to test the binding abilities. Upon the addition of CuCl2 or ZnSO4 the maximum absorption suffered a bathochromic shift, pointing out the formation of complex compound–Cu^II. […] […].
(§3) To determine the stoichiometry of the complex compound–Cu^II, the technique of continuous variations (also called Job’s method) was used by preparing solutions of compounds 15a, 17b and CuSO4 so that the sum of concentrations of both species was constant at […] in all samples, but the proportions of both components varied between 0 and 100%. The UV spectra were recorded and the absorbance change at the maximum absorption wavelength of the compound-Cu^II complex, meaning the 15a-Cu^II complex at 264 nm and the 17b-Cu^II at 265 nm, respectively. The absorbance change was plotted versus the mole fraction of the compound, giving two straight lines whose equations were calculated. […] […].
(§4) Since all the ligands studied L from ML2 species and in accordance with the Beer–Lambert law, complexation reactions can be summarized as 2L+M⇔ML2 with K = 1−α/4C^2α^3 , and α can be calculated from the data of the absorption.
(§5) Metal-chelating properties were evaluated by UV–vis spectrometry. To screen the ability of chelating metal ions, the same concentrations of compound and metal ion were mixed in CH3OH/H2O (v/v = 9/1), and the UV–vis spectrum was tested; compared to the compound, the maximum absorption that suffered a bathochromic shift would point out the formation of a complex compound–metal ion. The stoichiometry of the complex compound–metal ion was determined by Job’s method. The affinity of compounds 15–17 as ligands (excepted 15f, 16d, 16g, 16k) for Cu^II or Zn^II were estimated in the CH3OH/H2O solution (v/v = 9/1). Since all the ligands studied L from ML2 species and in accordance with the Beer–Lambert law, complexation reactions can be summarized as 2L+M⇔ML2 with K = 1−α/4C^2α^3 , and α = A/Amax; A was the data of absorption tested when the compound–metal ion = 2/1 under the maximum absorption wavelength of the complex, Amax was the absorption when the compound completely formed a complex with the metal ion; the data can be obtained as an approximation when the metal ion is in excess, and the absorption changes little as the concentration of metal ion still increases.

Data set [4] can be described thus: Metal chelation by UV–vis spectrometry, stoichiometry and affinity estimate (Zn). Conditions: CH3OH/H2O (v/v = 9/1), 2L+M⇔ML2. Type of data set: physicochemical.
Description: as §2, §3, §4, §5

Another data set concerns the target T3, Aβ1–42 (Homo sapiens, UniProt P05067).
T3 construct: aggregation of Aβ1–42 synthetic peptide into fibrils
The data set can be described thus: Inhibition of self-induced Aβ1–42 aggregation (ThT fluorescence). Type of data set: biochemical. Conditions: 20 μM compound, thioflavin-T fluorescence, mean ± SD of at least three independent experiments; read-out: Aβ Aggregation Inhibition (%), self-induced Aβ1–42. The procedure: Self-induced Aβ1–42 aggregation of all the compounds we obtained was also evaluated. […] ThT is a histochemical dye that is known to bind to the peptide β-sheet conformation, which is the predominant secondary structure of amyloid-beta fibrils. […] The inhibition studies were carried out upon incubating Aβ1–42 with and without the compounds.
Aβ1–42 was dissolved in 100% 1,1,1,3,3,3-[…] (HFIP) to a concentration of 1 mg/mL, sonicated in a water bath overnight, aliquoted into microcentrifuge tubes, dried under vacuum, and stored at −20 °C. Immediately prior to use, the HFIP-treated Aβ1–42 was dissolved in dimethylsulfoxide (DMSO) as the stored solution. […] Amounts of 5 μL of compound (200 μM) and 5 μL of 200 μM Aβ1–42 were added into 40 μL of phosphate-buffered saline (PBS at pH 7.4). After incubation at room temperature on a thermostatic shaker for 72 h, 100 μL of 5 μM ThT solution (in PBS at pH 7.4) was added to the reaction solution. […] The Aβ1–42 aggregation inhibition percentage was calculated using the following formula: inhibition percentage = (F1 − F2)/(F1 − F0) × 100%.

T1 sequence (P81908 whole entry): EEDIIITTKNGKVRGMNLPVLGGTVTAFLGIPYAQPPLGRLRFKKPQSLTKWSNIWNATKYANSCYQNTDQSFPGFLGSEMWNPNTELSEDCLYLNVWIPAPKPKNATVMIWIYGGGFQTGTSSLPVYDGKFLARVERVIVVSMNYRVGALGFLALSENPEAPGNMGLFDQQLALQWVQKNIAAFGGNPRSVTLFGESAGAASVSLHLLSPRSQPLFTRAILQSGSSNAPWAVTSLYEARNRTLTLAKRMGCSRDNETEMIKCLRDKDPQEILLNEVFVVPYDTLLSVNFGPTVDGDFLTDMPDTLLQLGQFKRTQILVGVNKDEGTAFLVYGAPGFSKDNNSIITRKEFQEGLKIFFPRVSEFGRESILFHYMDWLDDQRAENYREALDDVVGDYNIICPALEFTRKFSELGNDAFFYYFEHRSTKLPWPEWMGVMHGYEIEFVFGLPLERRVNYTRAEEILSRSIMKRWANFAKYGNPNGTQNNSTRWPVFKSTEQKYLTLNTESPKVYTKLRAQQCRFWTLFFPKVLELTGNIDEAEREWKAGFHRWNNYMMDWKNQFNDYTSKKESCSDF
T2 sequence (O42275 24-633): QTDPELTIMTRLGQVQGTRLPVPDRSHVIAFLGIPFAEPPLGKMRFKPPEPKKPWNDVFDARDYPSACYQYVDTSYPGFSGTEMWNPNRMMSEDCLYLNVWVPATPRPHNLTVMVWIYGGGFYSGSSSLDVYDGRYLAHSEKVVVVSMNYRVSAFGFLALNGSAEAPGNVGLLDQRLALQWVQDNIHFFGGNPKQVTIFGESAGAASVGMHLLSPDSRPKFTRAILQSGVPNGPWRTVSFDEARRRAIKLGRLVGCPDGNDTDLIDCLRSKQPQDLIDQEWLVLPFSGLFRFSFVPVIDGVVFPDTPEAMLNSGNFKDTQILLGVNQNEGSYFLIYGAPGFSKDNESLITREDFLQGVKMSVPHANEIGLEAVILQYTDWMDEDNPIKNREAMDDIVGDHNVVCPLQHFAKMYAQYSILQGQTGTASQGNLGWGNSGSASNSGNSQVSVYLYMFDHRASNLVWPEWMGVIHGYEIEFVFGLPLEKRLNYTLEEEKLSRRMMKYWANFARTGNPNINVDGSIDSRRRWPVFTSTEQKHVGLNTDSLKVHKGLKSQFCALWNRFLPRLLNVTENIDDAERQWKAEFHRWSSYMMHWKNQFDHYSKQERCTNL
T3 sequence (P05067 672-713): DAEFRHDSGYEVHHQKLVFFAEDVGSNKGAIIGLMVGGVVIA

For the molecule `O=C(CN1CCN(Cc2ccc3c(Cl)ccc(O)c3n2)CC1)Nc1c2c(nc3ccccc13)CCCC2` [Compound 15b, 2-(4-((5-Chloro-8-hydroxyquinolin-2-yl)methyl)piperazin-1-yl)-N-(1,2,3,4-tetrahydroacridin-9-yl)acetamide], the values for the IC50 in data set [1] and in data set [2] were 11500 ± 1560 nM and 2180 ± 170 nM, respectively. For the same molecule, in data set [2], the “Selectivity Index = IC50 (AChE)/IC50 (BuChE)” value (shortened to “Selectivity Index = IC50”) is 0.19. In addition, in data set [3], the “LogK Cu (affinity of ligand for Cu^II, ML2)” value (from here on “LogK Cu”) is reported as 10.09. The “LogK Zn (affinity of ligand for Zn^II, ML2)” value (shortened to “LogK Zn”) in data set [4] is 11.34.
Turning to `O=C(CN1CCN(Cc2ccc3c(Cl)cc(Cl)c(O)c3n2)CC1)Nc1c2c(nc3ccccc13)CCCC2` [Compound 15e, 2-(4-((5,7-Dichloro-8-hydroxyquinolin-2-yl)methyl)piperazin-1-yl)-N-(1,2,3,4-tetrahydroacridin-9-yl)acetamide], the inhibition at 20 µM at Aβ1–42 came out at 55.9 ± 2.5%. In addition, the IC50 in data set [1] worked out at 5530 ± 270 nM; in data set [2], 5730 ± 170 nM. In data set [2], the “Selectivity Index = IC50” value is reported as 1.04. Besides, the “LogK Cu” value in data set [3] is 9.59. In addition, in data set [4], the “LogK Zn” value was 9.65.
For the molecule `Nc1cccc2ccc(CN3CCN(CC(=O)Nc4c5c(nc6ccccc46)CCCC5)CC3)nc12` [Compound 15f, 2-(4-((8-Aminoquinolin-2-yl)methyl)piperazin-1-yl)-N-(1,2,3,4-tetrahydroacridin-9-yl)acetamide], the inhibition at 20 µM on Aβ1–42 is 22 ± 1.8%. The figures for the IC50 in data set [1] and in data set [2] were 7850 ± 710 nM and 1240 ± 210 nM, respectively. Also, the “Selectivity Index = IC50” value in data set [2] stood at 0.16.
Take `Oc1cccc2ccc(CN3CCN(CCNc4c5c(nc6ccccc46)CCCC5)CC3)nc12` [Compound 16a, 2-((4-(2-((1,2,3,4-Tetrahydroacridin-9-yl)amino)ethyl)piperazin-1-yl)methyl)quinolin-8-ol]: the inhibition at 20 µM at Aβ1–42 was 77 ± 4.3%. Further, in data set [1], the IC50 was found to be 270 ± 4 nM. For the same molecule, in data set [2], the IC50 was 440 ± 6 nM and the “Selectivity Index = IC50” value stood at 1.63. Also, the “LogK Cu” value in data set [3] is on record as 9.63. Further, the “LogK Zn” value in data set [4] was 9.48.
Turning to `Oc1ccc(F)c2ccc(CN3CCN(CCNc4c5c(nc6ccccc46)CCCC5)CC3)nc12` [Compound 16b, 5-Fluoro-2-((4-(2-((1,2,3,4-tetrahydroacridin-9-yl)amino)ethyl)piperazin-1-yl)methyl)quinolin-8-ol], the inhibition at 20 µM on Aβ1–42 amounted to 22.9 ± 2.4%. Moreover, in data set [1], the IC50 amounted to 200 ± 3 nM. For the same molecule, in data set [2], the IC50 came to 190 ± 5 nM and the “Selectivity Index = IC50” value is listed as 0.95. Moreover, in data set [3], the “LogK Cu” value is 9.99. For the same molecule, the “LogK Zn” value in data set [4] is listed as 9.63.
Consider `Oc1c(Cl)cc(Cl)c2ccc(CN3CCN(CCNc4c5c(nc6ccccc46)CCCC5)CC3)nc12` [Compound 16c, 5,7-Dichloro-2-((4-(2-((1,2,3,4-tetrahydroacridin-9-yl)amino)ethyl)piperazin-1-yl)methyl)quinolin-8-ol], for which the inhibition at 20 µM at Aβ1–42 is 92.5 ± 3.3%. Further, the IC50 in data set [1] amounted to 3410 ± 6 nM. For the same molecule, in data set [2], the IC50 amounted to 2680 ± 300 nM and the “Selectivity Index = IC50” value was 0.79. In data set [3], the “LogK Cu” value is given as 9.75. Further, the “LogK Zn” value in data set [4] is 9.28.
As to `Nc1cccc2ccc(CN3CCN(CCNc4c5c(nc6ccccc46)CCCC5)CC3)nc12` [Compound 16d, N-(2-(4-((8-aminoquinolin-2-yl)methyl)piperazin-1-yl)ethyl)-1,2,3,4-tetrahydroacridin-9-amine], the inhibition at 20 µM on Aβ1–42 turned out to be 84.7 ± 3.6%. Moreover, the IC50 is 210 ± 3 nM in data set [1] and 180 ± 4 nM in data set [2]. Further, the “Selectivity Index = IC50” value in data set [2] turned out to be 0.86.
As to `Oc1ccc(F)c2ccc(CN3CCN(CCCNc4c5c(nc6ccccc46)CCCC5)CC3)nc12` [Compound 16f, 5-Fluoro-2-((4-(3-((1,2,3,4-tetrahydroacridin-9-yl)amino)propyl)piperazin-1-yl)methyl)quinolin-8-ol], at Aβ1–42, the inhibition at 20 µM was 54.4 ± 2.9%. The IC50 in data set [1] turned out to be 28 ± 2 nM; in data set [2], 87 ± 2 nM. Moreover, the “Selectivity Index = IC50” value in data set [2] is listed as 3.11. The “LogK Cu” value in data set [3] is 9.62. In addition, in data set [4], the “LogK Zn” value is on record as 9.45.
Turning to `Oc1cccc2ccc(CN3CCN(CCCCCNc4c5c(nc6ccccc46)CCCC5)CC3)nc12` [Compound 16h, 2-((4-(5-((1,2,3,4-Tetrahydroacridin-9-yl)amino)pentyl)piperazin-1-yl)methyl)quinolin-8-ol], the inhibition at 20 µM on Aβ1–42 was determined as 93.2 ± 3.9%. The IC50 in data set [1] is 100 ± 10 nM; in data set [2] it was 210 ± 3 nM. Also, in data set [2], the “Selectivity Index = IC50” value was found to be 2.10. The “LogK Cu” value in data set [3] is 9.87. In data set [4], the “LogK Zn” value is 9.63.
Turning to `Oc1ccc(F)c2ccc(CN3CCN(CCCCCNc4c5c(nc6ccccc46)CCCC5)CC3)nc12` [Compound 16i, 5-Fluoro-2-((4-(5-((1,2,3,4-tetrahydroacridin-9-yl)amino)pentyl)piperazin-1-yl)methyl)quinolin-8-ol], at Aβ1–42, the inhibition at 20 µM amounted to 55.6 ± 5.3%. In addition, the IC50 in data set [1] turned out to be 120 ± 20 nM. In data set [2], the IC50 was determined as 400 ± 6 nM and the “Selectivity Index = IC50” value amounted to 3.33. Further, the “LogK Cu” value in data set [3] is listed as 9.49. Also, the “LogK Zn” value in data set [4] is reported as 9.49.
On to `Nc1cccc2ccc(CN3CCN(CCCCCNc4c5c(nc6ccccc46)CCCC5)CC3)nc12` [Compound 16k, N-(5-(4-((8-aminoquinolin-2-yl)methyl)piperazin-1-yl)pentyl)-1,2,3,4-tetrahydroacridin-9-amine], for which the inhibition at 20 µM on Aβ1–42 was determined as 86.7 ± 3.8%. In data set [1], the IC50 amounted to 54 ± 4 nM. Also, in data set [2], the 50% inhibitory concentration (IC50) was 210 ± 3 nM and the “Selectivity Index = IC50” value is 3.89.
Turning to `COc1cc(/C=C/C(=O)CC(=O)/C=C/c2ccc(O)c(OC)c2)ccc1O` [curcumin, reference compound], on Aβ1–42, the inhibition at 20 µM was found to be 58.3 ± 2.5%.
